Results from patent US20230218589A1, “COMPOUND FOR PREVENTION OR TREATMENT OF A SKIN CANCER OR SKIN PRECANCER” (UNIQUEST PTY LTD, priority 2020, published 2023).

What was measured:
actinic keratoses (AKs) = settings: topical therapy, organ transplant recipients (Heppt et al. 2019); cited from earlier work
human T cells = assay: Human T cell proliferation assay (PBMCs, anti-CD3, CellTiter-Glo); assay type: cell-based; settings: 50 ng/mL cyclosporine A, anti-CD3, 5 days
Protocol: Cyclosporine A 1 mg/mL stock (CsA—Sigma) was dissolved in DMSO, Rapamycin 5 mg/mL stock (LC Labs) was dissolved in ethanol.
Under sterile conditions, a 96 well flat bottom plate with white opaque walls (Perkin Elmer) was coated with 10 μg per well of purified human anti-CD3 antibody (clone OKT-3; Biolegend) in a volume of 50 μL per well in sterile PBS. The plate was covered in parafilm and incubated overnight at 4° C. Just prior to addition of Peripheral Blood Mononuclear Cells (PBMCs), the antibody solution was removed and discarded using a multichannel pipette. Wells were washed by adding 200 μL sterile PBS to each well and incubating for 2 min. PBS wash solution was removed and discarded following incubation. The wash step was repeated once, for a total of two PBS washes.
20 mL of blood from a consenting healthy volunteer was collected into lithium heparin vacuette containers (Greiner Bio-One). Under sterile conditions, blood from each container was pooled into a single tube and mixed thoroughly with 20 mL FACS buffer (2% FBS in 1×PBS). 15 mL Ficoll-Paque (GE Healthcare) was added to two 50 mL Falcon tubes, before 20 mL of whole blood/FACS buffer mixture was carefully and slowly dispensed on top of the Ficoll layer. Tubes were centrifuged at 800 g for 20 min at room temperature with the brake off. After centrifugation, the resulting PBMC layer between the plasma and Ficoll layers was carefully removed and transferred to a new 50 mL Falcon tube. Tubes were topped up to 45 mL with FACS buffer, then centrifuged at 500 g for 15 min. Supernatant was carefully removed without disturbing cell pellet, then PBMCs from both tubes were pooled. 30 mL of pre-warmed complete RPMI media [RPMI 1640 (Gibco), 10% heat inactivated FBS (Gibco), 1× Penicillin/Streptomycin/L-Glutamine (Gibco), 100 μM 2-Mercaptoethanol (Sigma)] was added to PBMCs, before centrifugation at 500 g for 15 min at room temperature. Supernatant was removed carefully without disturbing cell pellet. PBMCs were resuspended in 1 mL complete RPMI media.
PBMCs were counted manually using a haemocytometer and cell concentration was adjusted to 1.5×10^6 cells/mL with complete RPMI media. 50 μL of cell suspension was added to appropriate wells of the 96 well flat bottom plate with white opaque walls pre-coated in human anti-CD3. The final number of cells per well was 7.5×10^4.
Cells were incubated in a humidified incubator at 37° C. with 5% CO2 for 1 hour before Compound 1 (or vehicle only) was diluted in complete RPMI medium and added to the appropriate wells at the concentration required. The final volume in all wells was 100 μL. Cells were incubated for 5 days in a humidified incubator at 37° C. with 5% CO2.
CellTiter-Glo Luminescent Cell Viability Assay (Promega) was performed to determine the level of metabolically active cells per well based on ATP quantification. CellTiter-Glo Buffer and lyophilised CellTiter-Glo Substrate were equilibrated to room temperature. CellTiter-Glo Substrate was reconstituted with 10 mL CellTiter-Glo Buffer and gently vortexed for 1 minute to create the CellTiter-Glo Reagent. The 96 well plate containing PBMCs was equilibrated to room temperature for 30 min. Once at room temperature, 100 μL of CellTiter-Glo Reagent was dispensed using a multichannel pipette into each well containing 100 μL cells and media. The plate was mixed for 2 min at room temperature on an orbital shaker to induce cell lysis. The plate was then incubated for 10 min at room temperature in the dark to stabilize the luminescence signal. Luminescence signal was recorded using a CLARIOstar Plus plate reader (BMG Labtech).
PBMCs were stimulated with human anti-CD3 antibody and T cells were allowed to proliferate at 37° C. with 5% CO2 in a humidified incubator for 5 days. Proliferation/viability was assessed via a CellTiter-Glo Luminescent Cell Viability Assay and luminescence was read using a CLARIOstar Plus plate reader. […]

| Compound | complete clearance rate of AKs (actinic keratoses (AKs)) | T cell proliferation compared to the vehicle control (human T cells) |
| --- | --- | --- |
| O=c1[nH]cc(F)c(=O)[nH]1 [5-fluorouracil] | 11% | – |
| cyclosporine A [reference compound] | – | inhibited |
| CC(C)Cn1cnc2c(N)nc3ccccc3c21 [imiquimod] | 27.5-62.1% | – |
